pIC50, pKd: −log10 of the molar value. Read-outs that look alike come from different tables or passages of the source.
Experiments:
[1] = molecular target: T1, N-terminally FLAG-tagged PARP2 (amino acids 1-583) (Homo sapiens, UniProt Q9UGN5); assay: PARP2 probe displacement HTRF assay; type: binding; settings: binned Kd
T1 construct: N-terminally FLAG-tagged PARP2 (amino acids 1-583)
Description: Data analysis was performed identical as for PARP1.

[2] = molecular target: T2, full length N-terminally FLAG-tagged PARP1 (Homo sapiens, UniProt P09874); assay: PARP1 probe displacement HTRF assay; settings: for Selectivity: PARP1 over PARP2, ratio Kd (PARP2)/Kd (PARP1); for pKd: read-out: PARP1 HTRF, binned Kd
[3] = molecular target: T2, full length N-terminally FLAG-tagged PARP1; assay: PARP1 biochemical DELFIA assay (auto-PARylation); design: recombinant full length human N-terminally FLAG-tagged PARP1
[4] = binned IC50, biochemical auto-PARylation assay
[5] = binned IC50, PARP1 biochemical DELFIA assay

T1 sequence (Q9UGN5 whole entry, the tested form may be a part): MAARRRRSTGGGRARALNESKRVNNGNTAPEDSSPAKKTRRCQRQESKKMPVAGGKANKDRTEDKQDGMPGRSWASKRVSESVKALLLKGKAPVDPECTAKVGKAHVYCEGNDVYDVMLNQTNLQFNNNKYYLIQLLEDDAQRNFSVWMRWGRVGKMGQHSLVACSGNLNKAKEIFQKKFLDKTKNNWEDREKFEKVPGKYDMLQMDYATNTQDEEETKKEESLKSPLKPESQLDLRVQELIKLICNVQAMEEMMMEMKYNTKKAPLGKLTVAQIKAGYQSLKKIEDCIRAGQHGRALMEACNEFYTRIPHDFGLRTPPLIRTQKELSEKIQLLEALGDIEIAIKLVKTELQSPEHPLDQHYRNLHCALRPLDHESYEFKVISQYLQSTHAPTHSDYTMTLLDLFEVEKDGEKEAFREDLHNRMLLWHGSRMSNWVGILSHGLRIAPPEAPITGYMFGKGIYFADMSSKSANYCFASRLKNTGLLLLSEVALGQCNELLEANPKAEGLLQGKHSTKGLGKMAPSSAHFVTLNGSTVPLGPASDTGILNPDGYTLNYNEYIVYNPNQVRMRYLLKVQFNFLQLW
T2 sequence (P09874 whole entry): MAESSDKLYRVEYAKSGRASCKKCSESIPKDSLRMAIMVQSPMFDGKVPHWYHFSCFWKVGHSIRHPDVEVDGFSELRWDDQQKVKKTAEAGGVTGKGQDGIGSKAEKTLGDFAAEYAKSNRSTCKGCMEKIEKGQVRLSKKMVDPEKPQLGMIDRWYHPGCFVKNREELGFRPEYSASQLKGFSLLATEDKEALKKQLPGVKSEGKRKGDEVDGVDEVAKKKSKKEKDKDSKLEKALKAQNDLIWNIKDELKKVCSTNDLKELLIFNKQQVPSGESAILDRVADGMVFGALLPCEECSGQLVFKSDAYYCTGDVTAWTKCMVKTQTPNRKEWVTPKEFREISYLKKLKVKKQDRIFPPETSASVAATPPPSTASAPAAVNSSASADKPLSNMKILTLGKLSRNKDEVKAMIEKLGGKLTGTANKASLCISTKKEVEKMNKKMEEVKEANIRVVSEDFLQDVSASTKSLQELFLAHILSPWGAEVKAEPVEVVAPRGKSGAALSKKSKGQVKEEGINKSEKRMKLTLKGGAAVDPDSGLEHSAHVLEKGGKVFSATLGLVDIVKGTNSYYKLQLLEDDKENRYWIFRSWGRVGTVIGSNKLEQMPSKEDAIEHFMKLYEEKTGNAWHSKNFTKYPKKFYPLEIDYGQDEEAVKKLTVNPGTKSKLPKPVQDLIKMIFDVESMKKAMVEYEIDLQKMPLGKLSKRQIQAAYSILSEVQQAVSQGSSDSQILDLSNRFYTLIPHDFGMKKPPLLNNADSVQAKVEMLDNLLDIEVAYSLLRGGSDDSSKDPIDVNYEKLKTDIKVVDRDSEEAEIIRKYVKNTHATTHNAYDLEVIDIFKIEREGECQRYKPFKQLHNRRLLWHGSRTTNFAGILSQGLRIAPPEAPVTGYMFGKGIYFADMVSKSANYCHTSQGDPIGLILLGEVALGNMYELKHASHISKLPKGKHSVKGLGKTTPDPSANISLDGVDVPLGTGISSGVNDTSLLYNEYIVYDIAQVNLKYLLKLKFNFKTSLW

O=C(NC1CC1)c1ccc(N2CCC(N3CCC(c4cc5cccc(F)c5c(=O)[nH]4)C3)CC2)cn1 (single isomer, unassigned) [Compound 339b]
pKd ([1]; probe displacement HTRF): 6.00 to 7.00 | Selectivity ([2]; probe displacement HTRF): +++ (+++ indicate a value of at least 100) | pKd ([2]; probe displacement HTRF): > 8.00 | pIC50 [3, 4]: > 8.00

CNC(=O)c1ccc(N2CC(N3CCCC(c4nc5ccccc5c(=O)[nH]4)CC3)C2)cn1 (single isomer, unassigned) [Compound 145b]
pKd ([1]; PARP2 probe displacement HTRF): 5.00 to 6.00 | Selectivity ([2]; probe displacement HTRF): +++ (+++ indicate a value of at least 100) | pKd ([2]; PARP1 probe displacement HTRF): > 8.00 | pIC50 [3, 5]: > 8.00

CNC(=O)c1ccc(N2CCC(N3CCC(c4nc5c(C)scc5c(=O)[nH]4)C3)CC2)cn1 (single isomer, unassigned) [Compound 232a]
pKd ([1]; probe displacement HTRF): 6.00 to 7.00 | Selectivity ([2]; probe displacement HTRF): − (− indicates a value of less than 10) | pKd ([2]; probe displacement HTRF): 7.00 to 8.00 | pIC50 [3, 4]: 7.00 to 8.00

CCc1ccc(C2CCN(C3CCN(c4ccc(C(=O)NC)cc4)CC3)C2)[nH]c1=O (single isomer, unassigned) [Compound 355b]
pKd ([1]; probe displacement HTRF): 6.00 to 7.00 | Selectivity ([2]; probe displacement HTRF): +++ (+++ indicate a value of at least 100) | pKd ([2]; probe displacement HTRF): > 8.00 | pIC50 [3, 4]: > 8.00

CNC(=O)c1ccc(N2CCC(N3CCC(O)(c4nc5ccccc5c(=O)[nH]4)C3)CC2)cn1 (single isomer, unassigned) [Compound 140b]
pKd ([1]; PARP2 probe displacement HTRF): 5.00 to 6.00 | Selectivity ([2]; probe displacement HTRF): +++ (+++ indicate a value of at least 100) | pKd ([2]; PARP1 probe displacement HTRF): 7.00 to 8.00 | pIC50 [3, 5]: 7.00 to 8.00

CNC(=O)c1ccc(N2CCC(N3CCC(c4nc5c(c(C(F)(F)F)nn5C)c(=O)[nH]4)C3)CC2)cn1 (single isomer, unassigned) [Compound 187a]
pKd ([1]; PARP2 probe displacement HTRF): 6.00 to 7.00 | Selectivity ([2]; probe displacement HTRF): − (− indicates a value of less than 10) | pKd ([2]; PARP1 probe displacement HTRF): 7.00 to 8.00 | pIC50 [3, 5]: 7.00 to 8.00

CNC(=O)c1cc(F)c(N2CCC(N3CCC(c4cc5ccc(F)cc5c(=O)[nH]4)C3)CC2)cn1 (racemic) [Compound 235rac]
pKd ([1]; probe displacement HTRF): 7.00 to 8.00 | Selectivity ([2]; probe displacement HTRF): + (+ indicates a value of 10 to less than 50) | pKd ([2]; probe displacement HTRF): > 8.00 | pIC50 [3, 4]: > 8.00

CNC(=O)c1ccc(N2CCC(N3CCC(c4cc5ccccc5c(=O)[nH]4)C3)CC2)cn1 (single isomer, unassigned) [Compound 91a]
pKd ([1]; PARP2 probe displacement HTRF): 6.00 to 7.00 | Selectivity ([2]; probe displacement HTRF): +++ (+++ indicate a value of at least 100) | pKd ([2]; PARP1 probe displacement HTRF): > 8.00 | pIC50 [3, 5]: > 8.00

CNC(=O)c1cnc(N2CCC(N3CCCC(c4nc5ccccc5c(=O)[nH]4)C3)CC2)cn1 (single isomer, unassigned) [Compound 99b]
pKd ([1]; PARP2 probe displacement HTRF): 6.00 to 7.00 | Selectivity ([2]; probe displacement HTRF): − (− indicates a value of less than 10) | pKd ([2]; PARP1 probe displacement HTRF): 6.00 to 7.00 | pIC50 [3, 5]: 7.00 to 8.00

CNC(=O)c1ccc(N2CCC(N3CCC(c4cnc(C)c(=O)[nH]4)C3)CC2)cn1 (racemic) [Compound 127rac]
pKd ([1]; PARP2 probe displacement HTRF): < 5.00 | Selectivity ([2]; probe displacement HTRF): +++ (+++ indicate a value of at least 100) | pKd ([2]; PARP1 probe displacement HTRF): 7.00 to 8.00 | pIC50 [3, 5]: 7.00 to 8.00

CNC(=O)c1ccc(N2CCC(N3CCC(c4cc5ccc(Cl)cc5c(=O)[nH]4)C3)CC2)cn1 (single isomer, unassigned) [Compound 129a]
pKd ([1]; PARP2 probe displacement HTRF): 5.00 to 6.00 | Selectivity ([2]; probe displacement HTRF): +++ (+++ indicate a value of at least 100) | pKd ([2]; PARP1 probe displacement HTRF): > 8.00 | pIC50 [3, 5]: > 8.00

CCc1nc(C(=O)NC)ccc1N1CCC(N2CCCC(c3nc4ccccc4c(=O)[nH]3)C2)CC1 (single isomer, unassigned) [Compound 112b]
pKd ([1]; PARP2 probe displacement HTRF): < 5.00 | Selectivity ([2]; probe displacement HTRF): +++ (+++ indicate a value of at least 100) | pKd ([2]; PARP1 probe displacement HTRF): 7.00 to 8.00 | pIC50 [3, 5]: 7.00 to 8.00

CNC(=O)c1ncc(N2CCC(N3CCC(c4cc5cccc(F)c5c(=O)[nH]4)C3)CC2)c(C)n1 (racemic) [Compound 241rac]
pKd ([1]; probe displacement HTRF): 6.00 to 7.00 | Selectivity ([2]; probe displacement HTRF): +++ (+++ indicate a value of at least 100) | pKd ([2]; probe displacement HTRF): > 8.00 | pIC50 [3, 4]: > 8.00

CNC(=O)c1ccc(N2CCC(N3CCC(c4nc5[nH]nc(C(F)(F)F)c5c(=O)[nH]4)C3)CC2)c(F)n1 (single isomer, unassigned) [Compound 267a]
pKd ([1]; probe displacement HTRF): 6.00 to 7.00 | Selectivity ([2]; probe displacement HTRF): + (+ indicates a value of 10 to less than 50) | pKd ([2]; probe displacement HTRF): 7.00 to 8.00 | pIC50 [3, 4]: 7.00 to 8.00

— patent US20250152585A1, “PHARMACEUTICAL COMPOUND” (Duke Street Bio Limited, priority 2022, published 2025)
